This note sets out measurements from patent US20240366567A1, “PHARMACEUTICAL COMBINATIONS COMPRISING A KRAS G12C INHIBITOR AND USES THEREOF FOR THE TREATMENT OF CANCERS” (NOVARTIS AG, priority 2021, published 2024).

The assay deals with KRAS G12C and CDKN2A-mutated LU99 xenograft. In words: LU99 xenograft, Compound A with ribociclib (Example 7). Type of assay: in vivo. Conditions: LU99 xenograft in mice.

SMILES strings stand for the structures.

With `C=CC(=O)N1CC2(CC(n3nc(-c4ccc5c(cnn5C)c4)c(-c4c(Cl)c(C)cc5[nH]ncc45)c3C)C2)C1` (single isomer, unassigned) [Compound A, 1-{6-[(4M)-4-(5-Chloro-6-methyl-1H-indazol-4-yl)-5-methyl-3-(1-methyl-1H-indazol-5-yl)-1H-pyrazol-1-yl]-2-azaspiro[3.3]heptan-2-yl}prop-2-en-1-one], the “effect on tumor growth” value is “tumor regression for approximately two and a half weeks, followed by tumor relapse”.
